Patent publication US11066445B2, “Immunomodulators acting as antagonists of PD-1” (Bristol-Myers Squibb Company, priority 2017, dated 2021)
pIC50: −log10 of the molar value. Starred links: 1 amine or outer side, 2 acyl side, 3 side chain; linkers in the order of their positions; H or OH if unused. Positions of bridges follow the written chain, without caps; N, C: chain ends. Non-standard residues stand in square brackets, D forms with d. Residues, ends and D or L forms follow the SMILES beside them. *: point of attachment. X3 = O=C(O)CCCCCCCCCCCCCCCCC(=O)N[C@@H](CCC(=O)NCCCOCCOCCOCCCN*)C(=O)O; X1 = O=C(O)CCCCCCCCCCCCCCC(=O)N[C@@H](CCC(=O)NCCCOCCOCCOCCCN*)C(=O)O; Trp(4-aza,1-CH2COOH) = N[C@@H](Cc1cn(CC(=O)O)c2cccnc12)C(=O)O; Trp(7-aza,1-CH2COOH) = N[C@@H](Cc1cn(CC(=O)O)c2ncccc12)C(=O)O; Trp(1-CH2CO2Me) = COC(=O)Cn1cc(C[C@H](N)C(=O)O)c2ccccc21; X2 = O=C(O)Cn1cc(C[C@@H](N[*:1])C(=O)[*:2])c2cccnc21; X4 = O=C(O)Cn1nc(C[C@H](N[*:1])C(=O)[*:2])c2ccccc21; d(cisHyp) = O=C(O)[C@H]1C[C@@H](O)CN1; Hyp = O=C(O)[C@@H]1C[C@@H](O)CN1; NMeNle = CCCC[C@H](NC)C(=O)O; NMeA = CN[C@@H](C)C(=O)O; Dab = NCC[C@H](N)C(=O)O; Dap = NC[C@H](N)C(=O)O; Sar = CNCC(=O)O

What follows are molecules tested against T1, PD-1-Ig binding to PD-L1-TVMV-His (PD-L1-His) (Homo sapiens, UniProt Q9NZQ7) (assay: PD-1/PD-L1 Homogenous Time-Resolved Fluorescence (HTRF) binding assay). Settings: PD-1-Ig (20 nM) / PD-L1-His (10 nM); range classes; read-out: LE HTRF hPD1 hPDL1 IC50.
T1 construct: hPDL1(19-239)-TVMV-His; TVMV protease cleavage site (C); made in house; host or cells: HEK293T cells
T1 sequence (Q9NZQ7 with tags, fused parts or gaps): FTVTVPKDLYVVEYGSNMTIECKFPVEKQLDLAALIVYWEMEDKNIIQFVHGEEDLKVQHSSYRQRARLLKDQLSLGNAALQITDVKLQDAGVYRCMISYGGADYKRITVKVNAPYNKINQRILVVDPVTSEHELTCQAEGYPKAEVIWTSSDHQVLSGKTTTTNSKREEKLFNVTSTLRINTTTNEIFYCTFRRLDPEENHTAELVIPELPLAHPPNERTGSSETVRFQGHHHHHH
Description: Methods for Testing the Ability of Macrocyclic Peptides to Compete for the Binding of Pd-1 to Pd-L1 Using Homogenous Time-Resolved Fluorescence (HTRF) Binding Assays
The ability of the macrocyclic peptides of the present disclosure to bind to PD-L1 was investigated using a PD-1/PD-L1 Homogenous Time-Resolved Fluorescence (HTRF) binding assay.
Homogenous Time-Resolved Fluorescence (HTRF) Assays of Binding of Soluble PD-1 to Soluble PD-L1. Soluble PD-1 and soluble PD-L1 refers to proteins with carboxyl-end truncations that remove the transmembrane-spanning regions and are fused to heterologous sequences, specifically the Fc portion of the human immunoglobuling G sequence (Ig) or the hexahistidine epitope tag (His). All binding studies were performed in an HTRF assay buffer consisting of dPBS supplemented with 0.1% (w/v) bovine serum albumin and 0.05% (v/v) Tween-20. For the PD-1-Ig/PD-L1-His binding assay, inhibitors were pre-incubated with PD-L1-His (10 nM final) for 15 m in 4 μl of assay buffer, followed by addition of PD-1-Ig (20 nM final) in 1 μl of assay buffer and further incubation for 15 m. PD-L1 fusion proteins from either human, cynomologous macaques, mouse, or other species were used. HTRF detection was achieved using europium crypate-labeled anti-Ig monoclonal antibody (1 nM final) and allophycocyanin (APC) labeled anti-His monoclonal antibody (20 nM final). Antibodies were diluted in HTRF detection buffer and 5 μl was dispensed on top of binding reaction. The reaction was allowed to equilibrate for 30 minutes and signal (665 nm/620 nm ratio) was obtained using an EnVision fluorometer. Additional binding assays were established between PD-1-Ig/PD-L2-His (20 and 5 nM, respectively), CD80-His/PD-L1-Ig (100 and 10 nM, respectively) and CD80-His/CTLA4-Ig (10 and 5 nM, respectively). Binding/competition studies between biotinylated Compound No. 71 and human PD-L1-His were performed as follows. Macrocyclic peptide inhibitors were pre-incubated with PD-L1-His (10 nM final) for 60 minutes in 4 μl of assay buffer followed by addition of biotinylated Compound No. 71 (0.5 nM final) in 1 μl of assay buffer. Binding was allowed to equilibrate for 30 minutes followed by addition of europium crypated labeled Streptavidin (2.5 pM final) and APC-labeled anti-His (20 nM final) in 5 μl of HTRF buffer. The reaction was allowed to equilibrate for 30 m and signal (665 nm/620 nm ratio) was obtained using an EnVision fluorometer.
Recombinant Proteins. Carboxyl-truncated human PD-1 (amino acids 25-167) with a C-terminal human Ig epitope tag [hPD-1 (25-167)-3S-IG] and human PD-L1 (amino acids 18-239) with a C-terminal His epitope tag [hPD-L1(19-239)-tobacco vein mottling virus protease cleavage site (TVMV)-His] were expressed in HEK293T cells and purified sequentially by recombinant Protein A affinity chromatography and size exclusion chromatography. Human PD-L2-His (Sino Biologicals), CD80-His (Sino Biologicals), CTLA4-Ig (RnD Systems) were all obtained through commercial sources.
Ranges are as follows: A=0.010-0.060 μM; B=0.0011-0.009 μM; C=0.0003-0.0010 μM.
`CCCC[C@H]1C(=O)N(C)[C@@H](CCCC)C(=O)N[C@@H](CC(C)C)C(=O)N[C@H](C(=O)NCC(=O)N[C@@H](CC(=O)NCCCOCCOCCOCCCNC(=O)CC[C@H](NC(=O)CCCCCCCCCCCCCCC(=O)O)C(=O)O)C(=O)O)CSCC(=O)N[C@@H](Cc2ccc(O)cc2)C(=O)N(C)[C@@H](C)C(=O)N[C@@H](CC(N)=O)C(=O)N2CCC[C@H]2C(=O)N[C@@H](CN)C(=O)N[C@@H](CC(C)C)C(=O)N2C[C@H](O)C[C@H]2C(=O)N[C@@H](Cc2c[nH]c3ccccc23)C(=O)N[C@@H](CCN)C(=O)N[C@@H](Cc2cn(CC(=O)O)c3ncccc23)C(=O)N1C` [Example 19] ({CH2CO}-Y[NMeA]NP[Dap]L[Hyp]W[Dab][Trp(7-aza,1-CH2COOH)][NMeNle][NMeNle]LCGD(X1)-OH; thioether N-14) was tested, and the pIC50 was 8.05 to 8.96.
For `CCCC[C@H]1C(=O)N(C)[C@@H](CCCC)C(=O)N[C@@H](CC(C)C)C(=O)N[C@H](C(=O)NCC(=O)N[C@@H](CC(=O)NCCCOCCOCCOCCCNC(=O)CC[C@H](NC(=O)CCCCCCCCCCCCCCCCC(=O)O)C(=O)O)C(=O)O)CSCC(=O)N[C@@H](Cc2ccc(O)cc2)C(=O)N(C)[C@@H](C)C(=O)N[C@@H](CC(N)=O)C(=O)N(C)CC(=O)N[C@@H](CN)C(=O)N[C@@H](CC(C)C)C(=O)N2C[C@H](O)C[C@@H]2C(=O)N[C@@H](Cc2c[nH]c3ccccc23)C(=O)N[C@@H](CCN)C(=O)N[C@@H](Cc2cn(CC(=O)O)c3cccnc23)C(=O)N1C` [Example 8] ({CH2CO}-Y[NMeA]N[Sar][Dap]L[d(cisHyp)]W[Dab][Trp(4-aza,1-CH2COOH)][NMeNle][NMeNle]LCGD(X3)-OH; thioether N-14), the pIC50 was 8.05 to 8.96.
For `CCCC[C@H]1C(=O)N(C)[C@@H](CCCC)C(=O)N[C@@H](CC(C)C)C(=O)N[C@H](C(=O)NCC(=O)N[C@@H](CC(=O)NCCCOCCOCCOCCCNC(=O)CC[C@H](NC(=O)CCCCCCCCCCCCCCC(=O)O)C(=O)O)C(=O)O)CSCC(=O)N[C@@H](Cc2ccc(O)cc2)C(=O)N(C)[C@@H](C)C(=O)N[C@@H](CC(N)=O)C(=O)N2CCC[C@H]2C(=O)N[C@@H](CN)C(=O)N[C@@H](CC(C)C)C(=O)N2C[C@H](O)C[C@H]2C(=O)N[C@@H](Cc2c[nH]c3ccccc23)C(=O)N[C@@H](CCN)C(=O)N[C@H](Cc2cn(CC(=O)O)c3ncccc23)C(=O)N1C` [Example 20] ({CH2CO}-Y[NMeA]NP[Dap]L[Hyp]W[Dab][X2][NMeNle][NMeNle]LCGD(X1)-OH; thioether N-14), the pIC50 was 7.22 to 8.00.
`CCCC[C@H]1C(=O)N(C)[C@@H](CCCC)C(=O)N[C@@H](CC(C)C)C(=O)N[C@H](C(=O)NCC(=O)N[C@@H](Cc2cn(CCOCCOCCOCCOCCOCCOCCOCCOCCOCCOCCOCCNC(=O)CC[C@H](NC(=O)CCCCCCCCCCCCCCCCC(=O)O)C(=O)O)nn2)C(=O)O)CSCC(=O)N[C@@H](Cc2ccc(O)cc2)C(=O)N(C)[C@@H](C)C(=O)N[C@@H](CC(N)=O)C(=O)N2CCC[C@H]2C(=O)N[C@@H](CN)C(=O)N[C@@H](CC(C)C)C(=O)N2C[C@H](O)C[C@H]2C(=O)N[C@@H](Cc2c[nH]c3ccccc23)C(=O)N[C@@H](CCN)C(=O)N[C@@H](Cc2nn(CC(=O)O)c3ccccc23)C(=O)N1C` [Example 29] was tested, and the pIC50 was 9.00 to 9.52.
`CCCC[C@H]1C(=O)N(C)[C@@H](CCCC)C(=O)N[C@@H](CC(C)C)C(=O)N[C@H](C(=O)NCC(=O)N[C@@H](CC(=O)NCCCOCCOCCOCCCNC(=O)CC[C@H](NC(=O)CCCCCCCCCCCCCCCCC(=O)O)C(=O)O)C(=O)O)CSCC(=O)N[C@@H](Cc2ccc(O)cc2)C(=O)N(C)[C@@H](C)C(=O)N[C@@H](CC(N)=O)C(=O)N(C)CC(=O)N[C@@H](CN)C(=O)N[C@@H](CC(C)C)C(=O)N2C[C@H](O)C[C@@H]2C(=O)N[C@@H](Cc2c[nH]c3ccccc23)C(=O)N[C@@H](CCN)C(=O)N[C@@H](Cc2cn(CC(=O)OC)c3ccccc23)C(=O)N1C` [Example 10] ({CH2CO}-Y[NMeA]N[Sar][Dap]L[d(cisHyp)]W[Dab][Trp(1-CH2CO2Me)][NMeNle][NMeNle]LCGD(X3)-OH; thioether N-14) gave a pIC50 of 8.05 to 8.96.
`CCCC[C@H]1C(=O)N(C)[C@@H](CCCC)C(=O)N[C@@H](CC(C)C)C(=O)N[C@H](C(=O)NCC(=O)N[C@@H](CC(=O)NCCCOCCOCCOCCCNC(=O)CC[C@H](NC(=O)CCCCCCCCCCCCCCCCC(=O)O)C(=O)O)C(=O)O)CSCC(=O)N[C@@H](Cc2ccc(O)cc2)C(=O)N(C)[C@@H](C)C(=O)N[C@@H](CC(N)=O)C(=O)N2CCC[C@H]2C(=O)N[C@@H](CN)C(=O)N[C@@H](CC(C)C)C(=O)N2C[C@H](O)C[C@H]2C(=O)N[C@@H](Cc2c[nH]c3ccccc23)C(=O)N[C@@H](CCN)C(=O)N[C@@H](Cc2nn(CC(=O)O)c3ccccc23)C(=O)N1C` [Example 5] ({CH2CO}-Y[NMeA]NP[Dap]L[Hyp]W[Dab][X4][NMeNle][NMeNle]LCGD(X3)-OH; thioether N-14) was tested, and the pIC50 was 8.05 to 8.96.
In the case of `CCCC[C@H]1C(=O)N(C)[C@@H](CCCC)C(=O)N[C@@H](CC(C)C)C(=O)N[C@H](C(=O)NCC(=O)N[C@@H](CC(=O)NCCCOCCOCCOCCCNC(=O)CC[C@H](NC(=O)CCCCCCCCCCCCCCC(=O)O)C(=O)O)C(=O)O)CSCC(=O)N[C@@H](Cc2ccc(O)cc2)C(=O)N(C)[C@@H](C)C(=O)N[C@@H](CC(N)=O)C(=O)N2CCC[C@H]2C(=O)N[C@@H](CN)C(=O)N[C@@H](CC(C)C)C(=O)N2C[C@H](O)C[C@H]2C(=O)N[C@@H](Cc2c[nH]c3ccccc23)C(=O)N[C@@H](CCN)C(=O)N[C@@H](Cc2nn(CC(=O)O)c3ccccc23)C(=O)N1C` [Example 17] ({CH2CO}-Y[NMeA]NP[Dap]L[Hyp]W[Dab][X4][NMeNle][NMeNle]LCGD(X1)-OH; thioether N-14), the pIC50 was 8.05 to 8.96.
In the case of `CCCC[C@H]1C(=O)N(C)[C@@H](CCCC)C(=O)N[C@@H](CC(C)C)C(=O)N[C@H](C(=O)NCC(=O)N[C@@H](CC(=O)NCCCOCCOCCOCCCNC(=O)CC[C@H](NC(=O)CCCCCCCCCCCCCCCCC(=O)O)C(=O)O)C(=O)O)CSCC(=O)N[C@@H](Cc2ccc(O)cc2)C(=O)N(C)[C@@H](C)C(=O)N[C@@H](CC(N)=O)C(=O)N2CCC[C@H]2C(=O)N[C@@H](CN)C(=O)N[C@@H](CC(C)C)C(=O)N2C[C@H](O)C[C@H]2C(=O)N[C@@H](Cc2c[nH]c3ccccc23)C(=O)N[C@@H](CCN)C(=O)N[C@@H](Cc2cn(CC(=O)OC)c3ccccc23)C(=O)N1C` [Example 9] ({CH2CO}-Y[NMeA]NP[Dap]L[Hyp]W[Dab][Trp(1-CH2CO2Me)][NMeNle][NMeNle]LCGD(X3)-OH; thioether N-14), the pIC50 was 9.00 to 9.52.
In the case of `CCCC[C@H]1C(=O)N(C)[C@@H](CCCC)C(=O)N[C@@H](CC(C)C)C(=O)N[C@H](C(=O)NCC(=O)N[C@@H](CC(=O)NCCCOCCOCCOCCCNC(=O)CC[C@H](NC(=O)CCCCCCCCCCCCCCCCC(=O)O)C(=O)O)C(=O)O)CSCC(=O)N[C@@H](Cc2ccc(O)cc2)C(=O)N(C)[C@@H](C)C(=O)N[C@@H](CC(N)=O)C(=O)N(C)CC(=O)N[C@@H](CN)C(=O)N[C@@H](CC(C)C)C(=O)N2C[C@H](O)C[C@H]2C(=O)N[C@@H](Cc2c[nH]c3ccccc23)C(=O)N[C@@H](CCN)C(=O)N[C@@H](Cc2nn(CC(=O)O)c3ccccc23)C(=O)N1C` [Example 6] ({CH2CO}-Y[NMeA]N[Sar][Dap]L[Hyp]W[Dab][X4][NMeNle][NMeNle]LCGD(X3)-OH; thioether N-14), the pIC50 was 8.05 to 8.96.
With `CCCC[C@H]1C(=O)N(C)[C@@H](CCCC)C(=O)N[C@@H](CC(C)C)C(=O)N[C@H](C(=O)NCC(=O)N[C@@H](Cc2cn(CCOCCOCCOCCOCCOCCOCCOCCOCCOCCOCCOCCNC(=O)CC[C@H](NC(=O)CCCCCCCCCCCCCCCCC(=O)O)C(=O)O)nn2)C(=O)O)CSCC(=O)N[C@@H](Cc2ccc(O)cc2)C(=O)N(C)[C@@H](C)C(=O)N[C@@H](CC(N)=O)C(=O)N2CCC[C@H]2C(=O)N[C@@H](CN)C(=O)N[C@@H](CC(C)C)C(=O)N2C[C@H](O)C[C@H]2C(=O)N[C@@H](Cc2c[nH]c3ccccc23)C(=O)N[C@@H](CCN)C(=O)N[C@@H](Cc2nn(CC(=O)OC)c3ccccc23)C(=O)N1C` [Example 23] the pIC50 was 9.00 to 9.52.
